# Results reported in ChEMBL document CHEMBL3507680, “University of Dundee, Gates Library screen for HepG2 cell viability”.
# Experiment: Human HepG2 cell viability assay in 384 well format
# Assay type: toxicity, cell-based
# Set-up: dose 125 nL, time 70.5 hour; cytotoxicity at 70.5 h: concentration not given beside the values
# Conditions: HepG2 cells, read-out: Inhibition
row,SMILES,cytotoxicity at 70.5 h
1,Cc1cnn(CCNCc2ccc(OCc3ccncc3)cc2)c1,0.513%
2,Cc1cc(-n2c(C)cn(CN(C)CC3CC3)c2=O)no1,-1.13%
3,CC(C)(C)OCC1CN(Cc2cccs2)S(=O)(=O)c2cnccc2O1 (stereo not given),-2.07%
4,Cc1ccc(S(=O)(=O)N(C)Cc2nccs2)cc1N(C)C,6.76%
5,Cc1cccc(OC2CCN(C(=O)NCCn3ccnc3)CC2)c1C,-3.44%
6,COC(=O)c1ccc(OC)c(CN2CCN(CC(C)C)C(=O)C2C)c1 (stereo not given),26.8%
7,CC(=O)N1CCCC(c2ccnc(N(C)C)n2)C1 (stereo not given),-12.5%
8,CC(=O)c1cn(CCC(=O)N[C@H](C(=O)O)C(C)C)c2ccccc12,-4%
9,CC(C)COCCC(=O)NCc1cn2cc(Br)ccc2n1,18.2%
10,COc1ccc(CNC(=O)CCc2c(C)noc2C)cc1F,-12.8%
11,CCN1CCN(C(=O)c2csnn2)c2ccccc21,9.42%
12,Cc1ncccc1OC1(C(=O)NCCNc2ccccc2)CCNCC1,-5.68%
13,CN(Cc1ccncc1)C(=O)CCNS(=O)(=O)c1cccnc1,2.92%
14,CS(=O)(=O)NC(=O)c1nnn(-c2ccccc2)c1C1CC1,-5.6%
15,O=S(=O)(NCC1CCN(c2cnccn2)CC1)c1ccc(F)c(Cl)c1,-1.36%
16,Cc1noc(C)c1CCC(=O)N1CCCN(Cc2cscn2)CC1,-2.08%
17,CC(C)c1cccc(N2CCCC3(CCC(=O)N(C4CC4)C3)C2)n1 (stereo not given),-1.84%
18,Cc1noc(C)c1CCC(=O)N1CCCN(Cc2cccs2)CC1,-6%
19,CS(=O)(=O)NC[C@@H]1OC[C@H]2CN(C(=O)c3ccccc3)CC[C@H]21,15.9%
20,O=C(COc1cccc2c1CCC2=O)NCCc1cccs1,12.1%
21,O=C(O)Cc1cccc(-n2ccnc2-c2ccc(F)c(Cl)c2)c1,-0.808%
22,O=C(NCCn1ccc(-c2ccncc2)n1)c1ccc2c(c1)OCO2,1.76%
23,Cc1ccsc1CN(C)c1cc(N2CCCC2CO)ncn1 (stereo not given),-3.13%

row,SMILES,cytotoxicity at 70.5 h
1,CCOc1ncccc1CNC(=O)Nc1ccc(CC)cc1,-7.83%
2,O=C(CNc1cccc(S(=O)(=O)C(F)F)c1)Nc1ccccc1,-5.1%
3,O=c1[nH]c(NC2CCCC2)nc2nccc(-c3ccco3)c12,-8.71%
4,CN(C)c1ccc2c(c1)CN(C(=O)c1ccco1)C2c1cnco1 (stereo not given),32.5%
5,CC(Cn1ccnc1)NC(=O)NCc1ccc2c(c1)OCCO2 (stereo not given),2.17%
6,CC(C)C(=O)N1CC[C@H]2N(C)CC[C@@]2(C(=O)Nc2ccccc2)CC1,-10.2%
7,Cc1ccc2c(c1)C1(CC(=O)Nc3[nH]ncc31)C(=O)N2C (stereo not given),-21.9%
8,COCc1ccc(C(=O)N2CCc3c(ncnc3N3CCOCC3)C2)o1,-4.54%
9,CCCOc1cccc(CNC(=O)CN2CCN(C)CC2C)c1 (stereo not given),-13.5%
10,COCCCOc1ccc(C(=O)N(C)Cc2cccc(O)c2)cn1,-8.37%
11,COc1ccc2c(c1)CCCN2C(=O)CN1CCOC(CN(C)C)C1 (stereo not given),-4.78%
12,CCn1cc(CN2CCCN(C(=O)c3c(C)oc(C)c3C)CC2)cn1,-12.8%
13,CCc1nc(CN2CCCN(C(=O)c3cncnc3C)CC2)cs1,-7.12%
14,CC(C)[C@@H]1CN(c2ncc(F)cn2)C[C@H]1NS(=O)(=O)N(C)C,15.6%
15,Cn1ncnc1NS(=O)(=O)c1ccccc1,6.82%
16,O=C(COCC(F)(F)F)Nc1nncs1,10.8%
17,CC(=O)NCC1CCC2(CCN(c3ncc(C(C)=O)c(C)n3)CC2)O1 (stereo not given),-2.5%
18,CC(C)OCCS(=O)(=O)NC1CCN(C2CCCC2)C1 (stereo not given),8.61%
19,CCn1cc(Cl)c(C(=O)NCCCO)n1,-3.76%
20,Cc1ccc(NC(=O)C2CSCN2C(=O)c2ccncc2)c(C)c1 (stereo not given),-4.2%
21,Cc1cc(S(C)(=O)=O)c(C)c(S(=O)(=O)NCC2CCCO2)c1 (stereo not given),-16.8%
22,COc1ccc(C(=O)N2C[C@@H](O)[C@H](NCc3cnc(C)cn3)C2)cc1,22.1%
